For this assay, the target named is T1, integrins haα4 and β1 (VLA-4) expressed on CHO cells (Homo sapiens, UniProt P05556+P13612).
T1 construct: expressed in transfected cells; host or cells: CHO cells
T1 sequence (P13612 34-1032): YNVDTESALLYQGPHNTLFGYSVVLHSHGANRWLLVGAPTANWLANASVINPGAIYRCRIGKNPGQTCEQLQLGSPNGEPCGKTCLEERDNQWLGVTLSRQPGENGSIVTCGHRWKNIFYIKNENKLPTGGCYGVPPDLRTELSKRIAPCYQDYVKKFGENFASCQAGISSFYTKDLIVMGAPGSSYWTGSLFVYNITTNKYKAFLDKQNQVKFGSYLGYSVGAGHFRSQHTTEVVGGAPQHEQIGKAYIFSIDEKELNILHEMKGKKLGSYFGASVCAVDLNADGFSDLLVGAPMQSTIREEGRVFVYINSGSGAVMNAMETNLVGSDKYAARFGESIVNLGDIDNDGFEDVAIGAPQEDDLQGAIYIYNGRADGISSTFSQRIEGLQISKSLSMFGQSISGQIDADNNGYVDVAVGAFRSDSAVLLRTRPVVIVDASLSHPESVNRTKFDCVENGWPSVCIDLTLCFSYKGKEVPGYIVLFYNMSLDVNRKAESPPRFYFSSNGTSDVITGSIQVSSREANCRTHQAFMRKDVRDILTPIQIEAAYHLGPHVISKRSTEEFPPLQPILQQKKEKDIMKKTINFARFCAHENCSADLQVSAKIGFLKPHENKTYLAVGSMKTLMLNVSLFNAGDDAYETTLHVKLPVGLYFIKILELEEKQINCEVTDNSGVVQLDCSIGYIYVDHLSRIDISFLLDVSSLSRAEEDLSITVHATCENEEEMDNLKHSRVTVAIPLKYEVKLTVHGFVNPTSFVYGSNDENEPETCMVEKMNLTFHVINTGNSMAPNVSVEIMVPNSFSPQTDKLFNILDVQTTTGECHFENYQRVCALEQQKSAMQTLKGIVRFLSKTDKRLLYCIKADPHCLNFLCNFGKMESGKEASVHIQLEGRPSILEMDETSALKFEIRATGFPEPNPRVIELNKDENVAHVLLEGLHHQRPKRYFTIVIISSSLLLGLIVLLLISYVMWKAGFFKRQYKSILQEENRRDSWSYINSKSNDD
T1 sequence (P05556 21-798): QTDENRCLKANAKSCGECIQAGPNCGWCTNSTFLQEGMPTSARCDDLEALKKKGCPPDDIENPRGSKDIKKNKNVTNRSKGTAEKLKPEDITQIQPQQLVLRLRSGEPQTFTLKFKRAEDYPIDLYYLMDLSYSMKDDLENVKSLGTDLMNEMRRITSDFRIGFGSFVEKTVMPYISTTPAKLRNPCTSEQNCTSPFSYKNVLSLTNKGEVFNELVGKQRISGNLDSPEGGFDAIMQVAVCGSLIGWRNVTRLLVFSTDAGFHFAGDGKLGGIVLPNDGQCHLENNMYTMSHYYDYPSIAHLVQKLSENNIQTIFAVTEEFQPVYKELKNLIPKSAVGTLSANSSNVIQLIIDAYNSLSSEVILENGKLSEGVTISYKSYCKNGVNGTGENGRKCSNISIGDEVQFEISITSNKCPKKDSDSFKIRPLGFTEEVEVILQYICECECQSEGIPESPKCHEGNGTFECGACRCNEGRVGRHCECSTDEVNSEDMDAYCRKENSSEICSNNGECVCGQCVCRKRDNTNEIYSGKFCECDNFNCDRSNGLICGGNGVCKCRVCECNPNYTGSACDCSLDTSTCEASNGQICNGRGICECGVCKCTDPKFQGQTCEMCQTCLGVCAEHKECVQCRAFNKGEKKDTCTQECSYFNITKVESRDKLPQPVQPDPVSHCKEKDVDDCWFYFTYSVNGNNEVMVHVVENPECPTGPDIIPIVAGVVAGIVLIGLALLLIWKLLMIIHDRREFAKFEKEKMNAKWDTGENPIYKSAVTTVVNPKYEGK
Put plainly: In vitro Evaluation Test (1): binding of Eu3+-hVCAM-1 D1D7-IgG to CHO cells expressing integrins α4 and β1. The note with it: inhibition of Eu3+-hVCAM-1 D1D7-IgG binding to CHO cells expressing α4β1; Ki calculated from IC50. Here is the method: CHO cells forcedly expressed by the transduction of integrins haα4 and β1 were seeded in a Coster 3599 plate (3×10^4 cells/100 μl/well) and they were cultured for 2 days. After the medium was washed with buffer A* twice, 50 μl/well of Eu^3+-hVCAM-1 D1D7-IgG diluted to […] with an assay buffer ** was added. To the resulting well was added 50 μl/well of a test compound diluted with 2% DMS0-assay buffer (in the presence or absence of 6% human serum albumin) (to a well subjected to Scatchard analysis was added a solution diluted in another manner). After stirring for 5 minutes on a plate mixer, the plate was allowed to stand at room temperature for 1 hour. Then, the plate was washed four times with the buffer A and added with 100 μl/well of an enhancement reagent (DELFIA). The plate was shaken for 5 minutes on a plate mixer, followed by measurement of fluorescence intensity by a time-resolved fluorometer (DELFIA Wallac). From the binding ratio available by the following calculation formula: ((FT−FNS)−(FI−FNS))/(FT−FNS)×100, the IC50 (concentration inhibiting 50% of binding of CHO cells with hVCAM-1 D1D7-IgG) of the test compound was determined. In the above formula, FT means the fluorescence intensity of the well free of the test compound, FNS means the fluorescence intensity of the well free of the test compound and anti-hα4 antibody (SG/73), and FI means the fluorescence intensity of the well containing the test compound. The Kd indicating the binding strength and Bmax (maximum binding) were estimated within a range of 0.06 to 20 nM in accordance with the Scatchard analysis method.
The value Ki was calculated based on:
[formula] ((L) means a ligand concentration). (* buffer A: 25 mM HEPES (pH 7.5), 150 mM NaCl, 1 mM Ca^2+, 1 MM Mg^2+, 4 mM Mn^2+; ** assay buffer: 25 mM HEPES (pH 7.5), 150 mM NaCl, 1 mM Ca^2+, 1 mM Mg^2+, 4 mM Mn^2+, 0.1% BSA, 20 μM DTPA, with/without 6% ALBUMIN, HUMAN SERUM (C/N A-1653, SIGMA)) In vitro Evaluation Test (2)
For the compound `Cc1ccccc1Nc1nc2ccc(CC(=O)N3CC=C[C@H]3COc3ccc(C(=O)O)cc3)cc2o1` [Example 151, 4-(3,4-Dehydro-1-((2-(2-methylphenylamino)-6-benzoxazolyl)acetyl)-(2S)-pyrrolidinylmethoxy)benzoic acid], the Ki was 37 nM. As to `CC(=O)N(C)[C@H]1C[C@@H](CO[C@H]2CC[C@H](C(=O)O)CC2)N(C(=O)Cc2cc(Cl)c(NC(=O)c3cn(C)c4ccccc34)cc2F)C1` [Example 142, trans-4-(1-((5-Chloro-2-fluoro-4-(1-methyl-3-indolylcarbonylamino)phenyl)acetyl)-(4S)-(N-methylacetamido)-(2S)-pyrrolidinylmethoxy)-1-cyclohexanecarboxylic acid], the inhibition constant Ki is 18 nM. The same measure for `Cc1cc(CC(=O)N2C[C@@H](F)C[C@H]2CO[C@H]2CC[C@H](C(=O)O)CC2)ccc1Nc1nc2ccccc2o1` [Example 50, trans-4-(1-(4-(2-Benzoxazolyl)amino-3-methylphenylacetyl)-(4S)-fluoro-(2S)-pyrrolidinylmethoxy)cyclohexanecarboxylic acid]: 13 nM.

With `Cc1cc(F)ccc1Nc1nc2ccc(CC(=O)N3C[C@@H](F)C[C@H]3CO[C@H]3CC[C@H](C(=O)O)CC3)c(F)c2o1` [Example 45, trans-4-(1-((2-(4-Fluoro-2-methylphenylamino)-7-fluoro-6-benzoxazolyl)acetyl)-(4S)-fluoro-(2S)-pyrrolidinylmethoxy)cyclohexanecarboxylic acid], the Ki was 8.8 nM. As for `O=C(Nc1ccc(CC(=O)N2C[C@@H](F)C[C@H]2CO[C@H]2CC[C@H](C(=O)O)CC2)cc1Br)c1c[nH]c2ccccc12` [Example 64, trans-4-(1-((3-Bromo-4-((3-indolylcarbonyl)amino)phenyl)acetyl)-(4S)-fluoro-(2S)-pyrrolidinylmethoxy)cyclohexanecarboxylic acid], the Ki is 0.31 nM. With `Cc1ccccc1Nc1nc2ccc(CC(=O)N3C[C@@H](F)C[C@H]3COC3CCC(C(=O)O)CC3)c(F)c2o1` (single isomer, unassigned) [26 (Isomer A)], the Ki is 2 nM.

Take `O=C(Cc1ccc(Nc2nc3ccc(F)cc3s2)c(Cl)c1)N1C[C@@H](F)C[C@H]1CO[C@H]1CC[C@H](C(=O)O)CC1` [Example 57, trans-4-(1-(3-Chloro-4-(6-fluoro-2-benzothiazolyl)aminophenylacetyl)-(4S)-fluoro-(2S)-pyrrolidinylmethoxy)cyclohexanecarboxylic acid]: the Ki was 7.3 nM. For `O=C(Cc1ccc2nc(N3CCc4ccccc43)oc2c1)N1C[C@@H](F)C[C@H]1CO[C@H]1CC[C@H](C(=O)O)CC1` [Example 104], the inhibitory constant (Ki) is 20 nM. `O=C(Nc1cc(F)c(CC(=O)N2C[C@@H](F)C[C@H]2CO[C@H]2CC[C@H](C(=O)O)CC2)cc1Cl)c1nccc2ccccc12` [Example 81, trans-4-(1-((5-Chloro-2-fluoro-4-((1-isoquinolinylcarbonyl)amino)phenyl)acetyl)-(4S)-fluoro-(2S)-pyrrolidinylmethoxy)cyclohexanecarboxylic acid]: the Ki was 25 nM. The same measure for `O=C(Cc1ccc2nc(-c3cccc4ccccc34)oc2c1)N1C[C@@H](F)C[C@H]1CO[C@H]1CC[C@H](C(=O)O)CC1` [Example 95, trans-4-(1-(2-(1-Naphthyl)-6-benzoxazolylacetyl)-(4S)-fluoro-(2S)-pyrrolidinylmethoxy)cyclohexanecarboxylic acid]: 34 nM; for `O=C(Nc1ccc(CC(=O)N2C[C@@H](F)C[C@H]2CO[C@H]2CC[C@H](C(=O)O)CC2)cc1Cl)c1nccc2ccccc12` [Example 80, trans-4-(1-((3-Chloro-4-((1-isoquinolinylcarbonyl)amino)phenyl)acetyl)-(4S)-fluoro-(2S)-pyrrolidinylmethoxy)cyclohexanecarboxylic acid]: 12 nM. For `Cn1cc(C(=O)Nc2ccc(CC(=O)N3C[C@@H](F)C[C@H]3CO[C@H]3CC[C@H](C(=O)O)CC3)nc2Cl)c2ccccc21` [Example 69, trans-4-(1-(2-Chloro-3-((1-methyl-3-indolylcarbonyl)amino)-6-pyridyl)acetyl)-(4S)-fluoro-(2S)-cyclohexanecarboxylic acid], the Ki is 34 nM. As for `Cc1ccccc1Nc1nc2ccc(CC(=O)N3C[C@H](O)C[C@H]3CO[C@H]3CC[C@H](C(=O)O)CC3)cc2o1` [Example 122, trans-4-((4R)-Hydroxy-1-((2-(2-methylphenylamino)-6-benzoxazolyl)acetyl)-(2S)-pyrrolidinylmethoxy)cyclohexanecarboxylic acid], the Ki is 29 nM. Turning to `Cc1ccc(F)cc1Nc1nc2ccc(CC(=O)N3C[C@@H](F)C[C@H]3CO[C@H]3CC[C@H](C(=O)O)CC3)cc2o1` [Example 41, trans-4-(1-((2-(5-Fluoro-2-methylphenylamino)-6-benzoxazolyl)acetyl)-(4S)-fluoro-(2S)-pyrrolidinylmethoxy)cyclohexanecarboxylic acid], the Ki was 3.8 nM. The same measure for `O=C(Nc1ccc(CC(=O)N2C[C@@H](F)C[C@H]2C(=O)N[C@H]2CC[C@H](C(=O)O)CC2)cc1Cl)c1nccc2ccccc12` [Example 112, trans-4-((1-(3-Chloro-4-((1-isoquinolinylcarbonyl)amino)phenylacetyl)-(4S)-fluoro-(2S)-pyrrolidinyl)carbonylamino)cyclohexanecarboxylic acid]: 6.5 nM; for `Cn1nc(C(=O)Nc2cc(F)c(CC(=O)N3C[C@@H](S(C)(=O)=O)C[C@H]3CO[C@H]3CC[C@H](C(=O)O)CC3)cc2Cl)c2ccccc21` [Example 129, trans-4-(1-((5-Chloro-2-fluoro-4-((1-methyl-3-indazolylcarbonyl)amino)phenyl)acetyl)-(4S)-methanesulfonyl-(2S)-pyrrolidinylmethoxy)cyclohexanecarboxylic acid]: 1.5 nM; for `Cc1ccc(F)cc1Nc1nc2ccc(CC(=O)N3C[C@@H](F)C[C@H]3COc3ccc(C(=O)O)cc3)cc2o1` [Example 146, 4-(1-((2-(5-Fluoro-2-methylphenylamino)-6-benzoxazolyl)acetyl)-(4S)-fluoro-(2S)-pyrrolidinylmethoxy)benzoic acid]: 21 nM. The same measure for `COC[C@@H]1C[C@@H](Oc2ccc(C(=O)O)cc2)CN1C(=O)Cc1ccc2nc(Nc3cc(F)ccc3C)oc2c1F` [Example 159, 4-(1-((2-(5-Fluoro-2-methylphenylamino)-7-fluoro-6-benzoxazolyl)acetyl)-(2S)-methoxymethyl-(4R)-pyrrolidinyloxy)benzoic acid]: 47 nM; for `Cc1ccccc1Nc1nc2ccc(CC(=O)N3C[C@@H](F)C[C@H]3COC3CCC(C(=O)O)CC3)cc2o1` (single isomer, unassigned) [21 (Isomer G)]: 382 nM; for `O=C(Cc1ccc(Nc2nc3ccccc3s2)c(Cl)c1)N1C[C@@H](F)C[C@H]1CO[C@H]1CC[C@H](C(=O)O)CC1` [Example 56, trans-4-(1-(4-(2-Benzothiazolyl)amino-3-chlorophenylacetyl)-(4S)-fluoro-(2S)-pyrrolidinylmethoxy)cyclohexanecarboxylic acid]: 2.1 nM. Consider `O=C(Cc1ccc(Nc2nc3cc(F)ccc3o2)c(Cl)c1)N1C[C@@H](F)C[C@H]1CO[C@H]1CC[C@H](C(=O)O)CC1` [Example 54, trans-4-(1-(3-Chloro-4-(2-(5-fluorobenzoxazolyl))aminophenylacetyl)-(4S)-fluoro-(2S)-pyrrolidinylmethoxy)cyclohexanecarboxylic acid], for which the Ki is 5.6 nM. The figure for `O=C(O)c1ccc(OC[C@@H]2C[C@H](F)CN2C(=O)Cc2ccc3nc(Nc4ccccc4)oc3c2)cc1` [Example 1] is 30 nM; for `Cn1cc(C(=O)Nc2cc(F)c(CC(=O)N3C[C@@H](F)C[C@H]3C(=O)N[C@H]3CC[C@H](C(=O)O)CC3)cc2Cl)c2ccccc21` [Example 111, trans-4-((1-(5-Chloro-2-fluoro-4-((1-methyl-3-indolylcarbonyl)amino)phenylacetyl)-(4S)-fluoro-(2S)-pyrrolidinyl)carbonylamino)cyclohexanecarboxylic acid] it is 2.6 nM. The same measure for `Cn1cc(C(=O)Nc2ccc(CC(=O)N3C[C@@H](F)C[C@H]3COc3ccc(C(=O)O)cn3)cc2Cl)c2ccccc21` [Example 150, 6-(1-(3-Chloro-4-(1-methyl-3-indolyl)carbonylaminophenylacetyl)-(4S)-fluoro-(2S)-pyrrolidinylmethoxy)nicotinic acid]: 10 nM.

What is called Ki is the dissociation constant of the complex between target and ligand, obtained from inhibition or displacement.

The values are drawn from patent publication US7157487B2, “Vla-4 inhibitors” (Daiichi Pharmaceutical Co., Ltd., priority 2000, dated 2007).
